According to publication PMC7076382 (Pharmaceutics, 2020):
Read-outs that look alike come from different tables or passages of the source. Non-standard residues stand in square brackets, D forms with d. Residues, ends and D or L forms follow the SMILES beside them. dTrp(2-Me) = Cc1[nH]c2ccccc2c1C[C@@H](N)C(=O)O

Assays:
jejunal segment [1] = assay: Blood-to-lumen jejunal 51Cr-EDTA clearance (CLCr-EDTA) during SPIP
Description: (§1) At the SPIP experiment, the abdomen was opened along the midline and a jejunal segment of 10–15 cm was cannulated, covered with polyethylene wrap, and placed outside the abdomen. The bile duct was cannulated to avoid pancreaticobiliary secretion into the duodenum. […] During the first 30 min following surgery, each intestinal segment was single-passed perfused with 37 °C phosphate buffered saline (6 mM, pH 6.5 or 7.4). […] The length of the intestinal segment was measured after the jejunal cannulation as was the wet tissue weight of the segment after the experiment. The perfusion rate was at all times 0.2 mL/min (peristaltic pump, Gilson Minipuls 3, Le Bel, France).
Luminal perfusates and blood plasma at 0 and 135 min were analyzed for ^51Cr activity (cpm) in a gamma counter (1282 Compugamma CS, Pharmacia AB, Uppsala, Sweden). A linear regression analysis of the plasma samples was made to obtain a corresponding plasma value for each perfusate sample. […] CLCr-EDTA was determined during the last 45 min for the control solution and during the last 60 min for the test solutions (the first 15 min in each period was for equilibration). […]
(§2) Peff and CLCr-EDTA values, are expressed as the mean ± standard deviation (SD) or standard error of the mean (SEM). […]

jejunal segment [2] = assay: Single-pass intestinal perfusion (SPIP), jejunal lumen-to-blood effective permeability (Peff); conditions: any investigated luminal concentration: SDS 5 mg/mL; caprate 5, 10, 20 mg/mL
Description: (§3) In short, male Wistar Han rats (strain 273) from Charles River Co. (Cologne, Germany), weight 270–363 g, were used. On the study day, the rats were anesthetized using an intraperitoneal injection of a 5% w/v thiobutabarbital solution (180 mg/kg). Body temperature was maintained at 37.5 ± 0.5 °C. To validate the condition of the animal, the systemic arterial blood pressure was continuously recorded by connecting the arterial catheter to a transducer operating a PowerLab system (AD Instruments, Hastings, UK).
as §1
(§4) Each perfusate experiment was divided into two parts. […] The 10 and 20 mg/mL concentrations (suspensions) were used to evaluate if concentrations above saturation had any impact on membrane permeability.
(§5) The five experiments were designed such that each rat was its own control. The experimental period started with a rapid filling (<30 s) of the whole segment with the perfusate (about 1.5 mL for a 10 cm segment). The intestinal segment and perfusates were kept at 37 °C, and all outgoing perfusate was collected and weighed at 15-min intervals.
(§6) In short, an input rate was acquired by deconvolution of the plasma concentration–time profiles following the intestinal perfusion. […] From the input rate, an absorption rate was then calculated by compensating for first-pass extraction (Ffirstpass) of each compound in the rat intestine and liver. […] Plasma CL values were derived from the two-compartment analysis of the intravenous plasma data and an assumed rat liver blood flow of 47 mL/min/kg [24]. The Peff (cm/s) was then calculated by relating the absorption rate to the intestinal luminal area using Equation (2):(2) Peff=absorption rate/A × C where A is the area of the exposed intestinal segment described as a smooth cylinder with a radius of 0.2 cm and C is the concentration entering the luminal segment. Peff was evaluated from 0 to 135 min, and the mean Peff value of the two perfusion periods (60-min control and 75-min test) was regarded as representative for each individual rat.
as §2

rat intestine = conditions: cited from earlier work; for effect on permeation of small model drugs: caprate at 2 and 5 mg/mL
Caco-2 model = system: Caco-2 model; parameters: method as in PMID 11578108; conditions: cited from earlier work
intestinal lumen = system: intestinal lumen; parameters: method as in PMID 29758344; conditions: caprate dose of 11.4 mg/mL, formulation pH 6.5 and 7.4; cited from earlier work
colonic = conditions: cited from earlier work
[3] = Single-pass intestinal perfusion (SPIP), jejunal lumen-to-blood effective permeability (Peff); conditions: male, Wistar Han, rat, other: single-pass jejunal perfusion
Description: as §3, §1, §4, §5, §6, §2

[4] = cited from earlier work; for Log D6.5: pH 6.5; for Log D7.4: pH 7.4
[5] = rat, in vivo, iv
Description: (§7) Blood samples of <0.3 mL were collected from the femoral artery for a maximum volume of 4 mL during each experiment. All sampled blood volumes were replaced by an equivalent volume of saline (0.9% NaCl) containing 70 mg/mL bovine serum albumin. For the intravenous administration, blood was sampled over 6 h (at 5, 10, 20, 40, 60, 90 min and at 2, 4, and 6 h). […] The blood samples were put on ice and centrifuged (5000× g, 3 min at 4 °C) within 10 min of sampling; 100 μL of the plasma was transferred to 0.5 mL micro tubes and stored at −80 °C until analysis.
(§8) Plasma CL values were derived from the two-compartment analysis of the intravenous plasma data and an assumed rat liver blood flow of 47 mL/min/kg [24].
(§9) The plate was vortex-mixed for 10 min (pulse 1200) after which it was centrifuged for 10 min at 2862× g. The supernatants were then injected into the UHPLC-MS/MS system. The column used was an Acquity UPLC Peptide BEH C18 (50 × 2.1 mm length × inner diameter, 1.7 µm particle size) from Waters Corp. (Milford, MA, USA). The mobile phase consisted of (A) 0.1% formic acid in water and (B) 0.1% formic acid in acetonitrile. Gradient elution was initially 2.0% B for 0.50 min, with a linear increase to 90% B for 1.5 min, held constant at 90% B for 0.30 min, then back to 2.0% B in 0.30 min, and constant again at 2.0% B for 0.40 min. The total run time was 3.0 min.

in vivo = conditions: rat, iv
Description: as §7, §8, §9

[6] = rat
Description: as §3, §1, §4, §5, §6, §2

jejunal segment [7] = conditions: rat
Description: as §3, §1, §4, §5, §6, §2

rat liver = conditions: in vivo; cited from earlier work
[8] = rat, in vivo, iv; remark: listed apart in the source
Description: as §7, §8, §9

serine protease = system: serine protease; parameters: method as in PMID 9643439, PMID 11578108; conditions: rat, pefabloc SC at 0.3 mg/mL; cited from earlier work
[9] = dog, in vivo, po, 600 mg; cited from earlier work
[10] = n-octanol-water, source not given

CCCCCCCCCCCCOS(=O)(=O)[O-].[Na+] [SDS, sodium dodecyl sulfate]
CLCr-EDTA ratio (test vs. control period) (jejunal segment [1]; permeation enhancer at 5 mg/mL, pH 7.4, solution): significant increase | effect on hexarelin absorption (Peff ratio of hexarelin) (jejunal segment [2]): Neither SDS nor caprate at any of the investigated luminal concentrations enhanced absorption | pH dependence of the effect on the permeability of enalaprilat and CLCr-EDTA (rat intestine; SDS at 5 mg/mL, pH 6.5 vs. 7.4): unaffected by pH | increase of absorption of atenolol (rat intestine; SDS at 5 mg/mL, rat SPIP): 10 fold | increase of absorption of enalaprilat (rat intestine; SDS at 5 mg/mL, rat SPIP): 40 fold | increase of absorption of ketoprofen (rat intestine; SDS at 5 mg/mL, rat SPIP): not at all | effect on lumen-to-blood transport of four low permeation model compounds and on CLCr-EDTA (rat intestine; SPIP model, acyclovir, atenolol, enalaprilat, phenol red): increase the lumen-to-blood transport | effect on permeation of small model drugs (rat intestine; rat SPIP, SDS at 5 mg/mL): increases permeation in both absorptive and secretory directions

O=C([O-])CN(CCN(CC(=O)[O-])CC(=O)[O-])CC(=O)[O-].[51Cr+3] [^51Cr-EDTA, ^51Chromium-labeled ethylenediaminetetraacetate]
CLCr-EDTA (blood-to-lumen clearance) (jejunal segment [1]; control solution, mean ± SD, n = 24): 0.092 ± 0.039 mL/min/100 g

CCCCCCCCCC(=O)[O-].[Na+] [caprate, sodium caprate]
increase of apparent permeability of hexarelin (Caco-2 model): over 200 fold | absorption-enhancing effect (intestinal lumen): no effect | absorption-enhancing effect on small low permeability model compounds (rat intestine; caprate at 2 mg/mL, rat jejunal SPIP): did not observe any absorption-enhancing effect | effective caprate concentrations (rat intestine; rat SPIP model): 4 to 20 mg/mL | effect on permeation of small model drugs (rat intestine; rat SPIP, SDS at 5 mg/mL): does not | effect of caprate when pH was increased from 6.5 to 7.4 (colonic; 4 mg/mL caprate, rectal perfusion study): increased | human colonic Peff (colonic): 1.4 ± 0.4 × 10^−4 cm/s

C[C@H](N[C@@H](CCc1ccccc1)C(=O)O)C(=O)N1CCC[C@H]1C(=O)O [enalaprilat]
Papp at 100 µM [3]: 1.3 ± 0.9 ×10⁻⁶ cm/s | Log D6.5 [4, 10]: −1.0 | Log D7.4 [4, 10]: −1.0 | basal permeability (rat intestine; rat SPIP): 1.1 ×10⁻⁶ cm/s | C1 (intercept of first term) [5]: 428.6 (449.1/408.0) nM | C2 (intercept of second term) [5]: 87.7 (105.5/70.0) nM | λ1 (slope of first term) [5]: 3.9 (4.6/3.3) h^−1 | λ2 (slope of second term) [5]: 0.38 (0.45/0.31) h^−1 | clearance (in vivo): 3 mL/min

Cc1[nH]c2ccccc2c1C[C@@H](NC(=O)[C@@H](N)Cc1cnc[nH]1)C(=O)N[C@@H](C)C(=O)N[C@@H](Cc1c[nH]c2ccccc12)C(=O)N[C@H](Cc1ccccc1)C(=O)N[C@@H](CCCCN)C(N)=O [hexarelin] (H-H[dTrp(2-Me)]AW[dF]K-NH2)
Papp [6]: 0.19 ± 0.14 ×10⁻⁶ cm/s | Log D6.5 [4]: −3.40 | Log D7.4 [4]: −2.26 | permeability at pH 6.5 compared to pH 7.4 (jejunal segment [7]): lower at pH 6.5 compared to pH 7.4 | C1 (intercept of first term) [5]: 355.2 (416.9/293.5) nM | C2 (intercept of second term) [5]: 133.7 (149.1/118.3) nM | λ1 (slope of first term) [5]: 13.7 (17.5/10.0) h^−1 | λ2 (slope of second term) [5]: 2.08 (2.26/1.91) h^−1 | Ffirstpass (first-pass extraction) (rat liver): 0.63 | clearance [8]: 10.3 mL/min

CC(C(=O)O)c1cccc(C(=O)c2ccccc2)c1 (centres unmarked) [ketoprofen]
basal permeability (rat intestine; rat SPIP): 160 ×10⁻⁶ cm/s

Cl.NCCc1ccc(S(=O)(=O)F)cc1 [pefabloc SC]
inhibition of intestinal degradation of hexarelin (serine protease): completely inhibits

semaglutide
bioavailability [9]: 0.29%
